14 compounds from the SangsterLogP compilation can be followed below.

This data set is described as follows: method code SF-RC, from DOI: 10.1021/acs.jmedchem.5b00440, PMID: 26327138. Particulars: pH 7.4.
For the compound `CN(C)c1ccc(/C=C/c2cc3ccc(I)cc3s2)cn1`, the logD (usually the decadic logarithm of the distribution of all forms, ionised or not, between an organic phase and buffer at a given pH) turned out to be 2.85.

The compound `Ic1ccc2cc(/C=C/c3ccccc3)oc2c1` had a logD of 2.38.

Compound `Ic1ccc2nc(/C=C/c3cccnc3)[nH]c2c1` came in with a logD of 3.15.

As to `CN(C)c1ccc(C=Cc2cc3ccc(I)cc3s2)cc1`, the logD came out at 2.4.

The compound `Ic1ccc2nc(/C=C/c3ccccc3)oc2c1` gave a pH-dependent lipophilicity (logD) of 3.95.

As for `CN(C)c1ccc(/C=C/c2nc3ccc(I)cc3[nH]2)cn1`, the logD stood at 3.11.

Take `Ic1ccc2cc(/C=C/c3ccccc3)sc2c1`: the logD came to 2.34.

As for `Ic1ccc2cc(/C=C/c3cccnc3)sc2c1`, the logD was determined as 2.95.

For `Ic1ccc2nc(/C=C/c3ccccc3)[nH]c2c1`, the logD amounted to 3.25.

In the case of `Ic1ccc2nc(/C=C/c3cccnc3)oc2c1`, the logD is 3.35.

As for `CN(C)c1ccc(/C=C/c2nc3ccc(I)cc3s2)cn1`, the logD came out at 3.25.

As to `CN(C)c1ccc(/C=C/c2cc3ccc(I)cc3o2)cc1`, the logD turned out to be 2.11.

Regarding `Ic1ccc2cc(/C=C/c3cccnc3)oc2c1`, the logD is 3.13.

The compound `CN(C)c1ccc(/C=C/c2nc3ccc(I)cc3s2)cc1` returned a logD of 3.15.
